Where a name gives a salt, the structure may show the parent alone. Read-outs that look alike come from different tables or passages of the source.
What was measured:
Type in all cases: cell-based
[1] = system: MDA-231 breast cancer cells; assay: SRB cell viability assay, MDA-231; conditions: Homo sapiens, MDA-MB-231, MDA-231, Breast (triple negative)
Method: (§1) The effect of OSC inhibition was evaluated in additional cancer cell lines as well. Cancer cell lines may be purchased from ATCC (Manassas, Va.). The SRB assay has been employed for determination of the inhibitory effects of RO 48-8071 on growth of different cancer cells. Cells were seeded into 96-well plates and incubated overnight at 37° C. with 5% CO2. The culture medium was removed after 24 hours, and cells were washed with DMEM/F12 medium and then treated with various concentrations of RO 48-8071 in 5% FBS culture medium for 24 and 48 hours. Surviving or adherent cells were fixed in situ by withdrawing the growth medium, adding 100 μl PBS and 100 μl 50% trichloroacetic acid and then incubating at 4° C. for one hour. Cells were washed with ice-cold water, dried at room temperature (RT), and then stained with 50 μl 4% SRB for eight minutes at RT. Unbound dye was removed by washing with cold 1% acetic acid for five times, and plates were dried at RT. Bound stain was solubilized with 150 μl 10 mM Tris buffer and absorbance of samples was read at 520 nm with a SpecTRA MAX 190 microplate reader (Molecular Devices, Sunnyvale, Calif.). Six wells were used for each concentration, and each experiment was performed two to three times.
Effect of RO 48-8071 on estrogen, progesterone, and HER-2/neu receptors negative breast cancer cell line MDA-231 and BT-20 viability. […]

[2] = system: PC-3 and DU-145 human prostate cancer cells; assay: Annexin V / PI apoptosis assay, prostate cancer cells; conditions: 24 hours
Description: Apoptosis is a normal physiologic process which occurs during embryonic development as well as in maintenance of tissue homeostasis. The apoptotic program is characterized by certain morphologic features, including loss of plasma membrane asymmetry and attachment, condensation of the cytoplasm and nucleus, and internucleosomal cleavage of DNA. […]. In apoptotic cells, the membrane phospholipid phosphatidylserine (PS) is translocated from the inner to the outer leaflet of the plasma membrane, thereby exposing PS to the external cellular environment. Annexin V is a 35-36 kDa Ca2+ dependent phospholipid-binding protein that has a high affinity for PS, and binds to cells with exposed PS. Annexin V may be conjugated to fluorochromes including FITC. […]
FITC Annexin V staining precedes the loss of membrane integrity which accompanies the latest stages of cell death resulting from either apoptotic or necrotic processes. […] However, when apoptosis is measured over time, cells can be often tracked from FITC Annexin V and PI negative (viable, or no measurable apoptosis), to FITC Annexin V positive and PI negative (early apoptosis, membrane integrity is present) and finally to FITC Annexin V and PI positive (end stage apoptosis and death). […]

[3] = system: PC-3 prostate cancer cells; assay: SRB cell viability assay, PC-3; conditions: Homo sapiens
Method: as §1
Effect of RO 48-8071 on prostate cancer cell line PC-3 viability. […]

[4] = system: OV-CAR-3 ovarian cancer cells; assay: SRB cell viability assay, OV-CAR-3; conditions: Homo sapiens, OVCAR-3, OV-CAR-3, Ovary
Method: as §1
Effect of RO 48-8071 on ovarian cancer cell line OVCAR-3 viability. […]

[5] = 24 hours, read-out: IC50 (μM) (24 hours)
[6] = 48 hours, read-out: IC50 (μM) (48 hours)

C=CCN(C)CCCCCCOc1ccc(C(=O)c2ccc(Br)cc2)c(F)c1 [Ro 48-8071, 4′-[6-(Allylmethylamino)hexyloxy]-4-bromo-2′-fluorobenzophenone fumarate]
IC50 [1, 5]: 15 ± 0.482 µM
IC50 [1, 6]: 10.7 ± 0.276 µM
apoptosis and cell death (annexin V / PI positive cells) [2]: Induces Apoptosis and Cell Death
IC50 [3, 5]: 17.8 ± 1.29 µM
IC50 [3, 6]: 11.1 ± 0.35 µM
IC50 [4, 5]: 20.5 ± 0.325 µM
IC50 [4, 6]: 11.3 ± 0.33 µM
